Literature values as cited in patent US8524202B2, “Tooth whitening compositions and methods” (priority 2008, dated 2013).

Conditions: at six months; concentrations 16%-18% carbamide peroxide; Brunton et al., 2004

NC(N)=O.OO [carbamide peroxide]
rebound, patients: 40%
